Measured values reported in paper PMC4897788, “Design, biological evaluation and 3D QSAR studies of novel dioxin-containing pyrazoline derivatives with thiourea skeleton as selective HER-2 inhibitors” (Scientific Reports, 2016).

Tests used:
[1] = target: HER-2 protein (truncated) (Homo sapiens, UniProt P04626); assay: BLI assay (bio-layer interferometry); type: binding; conditions: labeled compound, calculated by the Octet Red96 system
Experimental: Bio-layer interferometry (BLI). Binding of compounds (labeled; 0.01, 0.05, 0.1, 0.5 μM) to the HER-2 protein (truncated) was measured and analyzed on an Octet Red96 instrument (ForteBio) at room temperature. The buffer-equilibrated streptavidin biosensors were loaded with 100 μg/mL protein. A duplicate set of sensors was incubated in the buffer without protein for a background binding control. The assay was performed in black 96-well plates (Thermo Fisher Scientific) with the total working volume of 0.21 mL per well. The signal was analyzed using a double reference subtraction protocol to subtract the non-specific binding, background, and signal drift caused by sensor variability. The binding event was quantified by the shift of interference pattern of the light. The result was shown in Fig. 7 and the KD was calculated by the Octet Red96 instrument.

MDA-MB-453 cell line = assay: Flow cytometry, Annexin V-FITC/PI apoptosis; type: cell-based, human; conditions: 0.05, 0.1 and 0.2 μM, 24 h
Experimental: MDA-MB-453 cell line was seeded per well in 24-well plates and incubated overnight. Then they were treated with compound C20 at three different concentrations (0.05 μM, 0.1 μM and 0.2 μM, separately). DMSO was chosen as the negative control with a regular dosage of 0.2%. After 24 h, cells were harvested for the apoptosis detection. In brief, collected cells were washed once with PBS and subsequently washed once with binding buffer, and then stained with Annexin V-FITC and propidium iodide (PI) in the binding buffer for 20 min at room temperature in the dark. Apoptotic cells were quantified using a FACScan cytofluorometer (PT. Madagasi Brosa Inc. JI. Batang Hari NO. 73, Propinsi Sumatera Utara, Indonesia) plotting at least 10,000 events per sample. To quantify the data, the frequencies in all quadrants were analyzed using flowjo software. We regarded cells in the lower right quadrant (Annexin V positive/PI negative) as early apoptotic cells, and cells in upper right quadrant (Annexin V positive/PI positive) as late apoptotic cells and necrotic cells.

Caspase3 = assay: Western blot Caspase3 in MDA-MB-453; type: cell-based, human; conditions: increasing C20 levels
Experimental: (§1) After incubation with compound, cells were harvested and washed with PBS, then lysed in lysis buffer (30 mm Tris, pH 7.5, 150 mm NaCl, 1 mm phenylmethylsulfonyl fluoride, 1 mm Na3VO4, 1% Nonidet P-40, 10% glycerol, and phosphatase and protease inhibitors). After centrifugation at 12,000 g for 5 min, the supernatant was collected as total protein. The concentration of the protein was determined by a BCATM protein assay kit (Pierce, Rockford, IL, USA). The protein samples were separated by 10% SDS–PAGE and subsequently electrotransferred onto a polyvinylidene difluoride membrane (Millipore, Bedford, MA, USA). The membrane was blocked with 5% non-fat milk for 2 h at room temperature. The blocked membrane was probed with the indicated primary antibodies overnight at 4 °C, and then incubated with a horse radish peroxidase (HRP)-coupled secondary antibody.

p-EGFR = assay: Western blot p-EGFR in MDA-MB-453; type: cell-based, human; conditions: increasing C20 levels
Experimental: as §1

[2] = Cytotoxicity test (MTT), NIH-3T3; type: cell-based; conditions: mouse, NIH-3T3 mouse embryonic fibroblast cells, NIH3T3
Experimental: The cytotoxic activity in vitro was measured against mouse fibroblast NIH-3T3 cell using the MTT assay. Cells were cultured in a 96-well plate at a density of 5 × 10^5 cells and different concentrations of compounds were respectively added to each well. The incubation was permitted at 37 °C, 5% CO2 atmosphere for 24 h before the cytotoxicity assessments. 20 μL MTT reagent (4 mg/mL) was added per well 4 h before the end of the incubation. Four hours later, the plate was centrifuged at 1200 rcf for 5 min and the supernatants were removed, each well was added with 200 μL DMSO. The absorbance was measured at a wavelength of 490 nm (OD 490 nm) on an ELISA microplate reader. Three replicate wells were used for each concentration and each assay was measured three times, after which the average of IC50 was calculated. The cytotoxicity of each compound was expressed as the concentration of compound that reduced cell viability to 50% (IC50).

VEGFR-2 = target: T1, VEGFR-2 (Homo sapiens, UniProt P35968); assay: VEGFR-2 inhibitory assay; type: biochemical
T1 construct: either the phosphorylated or nonphosphorylated form of the VEGFR-2 kinase domain
Experimental: In a 96-well plate, 5 nM/L of either the phosphorylated or nonphosphorylated form of the VEGFR-2 kinase domain was incubated with selected compounds (10-point titration ranging from 4 μM to 0.1 μM), 1 μM/L gastrin substrate, 20 mM/L Tris-HCl, pH 7.5, 10 mM/L MgCl2, 100 mM/L NaCl, 1.5 mM/L EGTA, 1 mM/L DTT, 0.2 mM/L sodium orthovanadate, and 20 μg/mL BSA for 30 min at 25 °C. ATP was added at a final concentration of 11.8 μM and incubated for 60 min at room temperature. Eu-labeled antiphosphotyrosine pT66 antibody (Perkin- Elmer) was then used for detection. The fluorescence at 665 nM was measured with a Wallac Victor plate reader using a time delay of 50 μs. The experiment was performed for three independent times and in triplicate each time.

human erythrocytes = assay: Hemolysis test; type: cell-based; conditions: lytic concentration 30%
Experimental: Hemolytic activity was assayed using fresh capillary human blood. Erythrocytes were collected by centrifuging the blood three times in chilled phosphate buffered saline (PBS at 4 °C) at 1000 × g for 10 min. The final pellet was resuspended in PBS to give a 2% w/v solution. Using a microtitre plate, 100 μL of the erythrocyte solution was added to dextran, PLL, stearyl-PLL or stearyl-PLL+ LDL (1–1000/μg/mL) in a volume of […]. Samples were then incubated for 3 h and the microtitre plate was centrifuged then at 1000 × g for 10 min and the supernatants (100 μL) transferred into a new microtitre plate. Hemoglobin release was determined spectrophotometrically using a microtitre plate reader (absorbance at 550 nm). Results were expressed as the amount of released hemoglobin induced by the compounds as a percentage of the total. Hemolysis test was tested according to the guide of biological evaluation of medical device (SFDA, China).

p-HER-2 = assay: Western blot p-HER-2 in MDA-MB-453; type: cell-based, human; conditions: increasing C20 levels
Experimental: as §1

T1 sequence (P35968 834-1162 limits assumed, species assumed): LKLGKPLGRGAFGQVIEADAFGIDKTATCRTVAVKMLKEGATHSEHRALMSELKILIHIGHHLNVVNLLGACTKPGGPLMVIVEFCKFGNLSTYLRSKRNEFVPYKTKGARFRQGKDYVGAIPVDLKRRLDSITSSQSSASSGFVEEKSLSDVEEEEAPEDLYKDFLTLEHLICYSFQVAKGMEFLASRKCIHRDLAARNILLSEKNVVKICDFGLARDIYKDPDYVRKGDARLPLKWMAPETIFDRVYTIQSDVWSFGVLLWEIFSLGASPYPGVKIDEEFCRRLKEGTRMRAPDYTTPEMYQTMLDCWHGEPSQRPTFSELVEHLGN
Chain of HER-2 protein (truncated) (P04626 676-1245): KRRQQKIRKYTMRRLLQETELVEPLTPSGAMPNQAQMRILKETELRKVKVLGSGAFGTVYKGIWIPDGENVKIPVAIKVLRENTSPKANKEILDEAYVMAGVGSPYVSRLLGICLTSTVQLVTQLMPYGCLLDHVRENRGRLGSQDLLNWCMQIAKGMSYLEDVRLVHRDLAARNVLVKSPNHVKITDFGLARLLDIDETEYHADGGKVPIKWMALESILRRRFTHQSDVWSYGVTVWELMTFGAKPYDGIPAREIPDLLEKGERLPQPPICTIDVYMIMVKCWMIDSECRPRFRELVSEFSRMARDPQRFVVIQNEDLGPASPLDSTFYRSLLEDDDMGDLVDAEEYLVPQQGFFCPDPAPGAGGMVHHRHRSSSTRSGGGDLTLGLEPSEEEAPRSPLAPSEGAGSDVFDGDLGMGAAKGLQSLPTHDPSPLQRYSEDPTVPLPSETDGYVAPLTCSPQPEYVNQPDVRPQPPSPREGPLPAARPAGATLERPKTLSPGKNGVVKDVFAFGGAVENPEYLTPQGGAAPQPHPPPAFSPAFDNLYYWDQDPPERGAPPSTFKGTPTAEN

Structure (SMILES): COc1ccc(C2CC(c3ccc4c(c3)OCCO4)=NN2C(N)=S)cc1OC (centres unmarked) [Compound C20, 3-(2,3-dihydrobenzo[b][1,4]dioxin-6-yl)-5-(3,4-dimethoxyphenyl)-4,5-dihydro-1H-pyrazole-1-carbothioamide]
- Kd [1]: 0.187 µM
- induction of apoptosis (MDA-MB-453 cell line): induce apoptosis of activated MDA-MB-453 cell line in a dose-dependent manner
- Caspase3 levels (Caspase3): corresponding increase
- p-EGFR levels (p-EGFR): unconspicuous
- GI50 at 24 h [2]: 274 ± 3.61 µM
- IC50 (VEGFR-2): 18.4 ± 1.74 µM
- Hemolysis LC30 (human erythrocytes): >10000 µg/mL
- p-HER-2 levels (p-HER-2): gradually trend of decrease
